What was measured:
[1] = target: recombinant human DAAO protein (Homo sapiens (Human), UniProt P14920); assay: DAAO inhibitory activity test (H2O2/Amplex red fluorescence); type: biochemical; conditions: D-alanine substrate, Amplex red fluorescence
Experimental: The DAAO inhibitory activity was measured by assaying the amount of hydrogen peroxide (H2O2) produced by reacting DAAO protein with flavin adenine dinucleotide (FAD) and D-alanine. The amount of H2O2 was determined by measuring the fluorescence generated on conversion of Amplex red (manufactured by Invitrogen Co.) into resorufin by the reaction of H2O2 with horseradish peroxidase (HRP).
Escherichia coli strain BL21(DE3) (manufactured by Novagen) was transformed with the constructed human DAAO expression vector, inoculated into LB culture medium containing kanamycin at a final concentration of 20 μg/mL, and shake-cultured at 37° C. overnight. The multiplied transformant was inoculated into Terrific Broth containing kanamycin at a final concentration of 20 μg/mL, and shake-cultured at 37° C. until it reached OD600=3.0. Thereafter, the culture was cooled to 30° C., and expression was induced with 1 mM IPTG. After 20 hours, bacterial pellets were recovered by centrifugation.
The bacterial pellets recovered as above were suspended in a lysis buffer (17 mM sodium pyrophosphate buffer pH 8.3, 100 μM FAD, 1 mM sodium benzoate, 1 mM PMSF, 14 mM β-mercaptoethanol, 0.2 mg/mL lysozyme) and the bacteria were fractured by sonication. The sonicated liquid was centrifuged and the supernatant was recovered. […]

[2] = target: HEK293 cells that stably express human DAAO (Homo sapiens (Human), UniProt P14920); assay: Inhibitory activity test at cellular level using DAAO-expressing cells; type: cell-based
Experimental: HEK293 cells that stably express human DAAO were suspended in Cellbanker solution at 5×10^6 cells/ml and cryopreserved at −80° C. At the time of measurement, the cells were centrifuged at 1000 rpm for one min and the Cellbanker solution was removed. […] A 4% DMSO buffer solution (50 mM sodium phosphate [pH 7.5], 0.02% CHAPS) of the test compound (4 μL) was added to a 384-well black, low volume plate, the cell suspension (4 μL) was added, and the mixture was incubated at room temperature for 15 min.
Reverse transcription was performed on human normal kidney tissue-derived RNA (Clontech Corp.) using reverse transcriptase (SuperScriptIII, Life Technologies Corporation) and oligo (dT) primer (Life Technologies Corporation) according to the protocol of the kit (Life Technologies Corporation) and cDNA was synthesized. Then, using human DAAO_HindIII_F represented by Sequence No. 1 and human DAAO_BamHI_R represented by Sequence No. 2, a PCR reaction (35 cycles of 98° C. for 15 sec, 55° C. for 15 sec and 68° C. for 1 min 30 sec) was performed using DNA polymerase (PrimeSTAR, TAKARA BIO INC.) and cDNA obtained as above as a template. […] The PCR product was cloned in a cloning vector (pCR2.1-TOPO Cloning Kit, Life Technologies Corporation). The sequence of the insert was determined by the dideoxy sequence method (BigDye Terminator v3.1 Cycle Sequencing Kit; Life Technologies Corporation). […]

For O=c1[nH]nc(COc2ccc(Cl)cc2)cc1O [Example 254], the IC50 [1] was 2.7 nM and the IC50 [2] was 6.3 nM.

From patent US10202399B2, “Dihydroxy aromatic heterocyclic compound” (Takeda Pharmaceutical Company Limited, priority 2011, dated 2019)
